Laboratory results as given in US11179364B2, “Licofligozin for the treatment of non-alcoholic steatohepatitis” (NOVARTIS AG, priority 2017, dated 2021).
Like-named read-outs stand apart in the source and are kept apart here.

How the values were obtained:
SGLT2 = molecular target: T1, SGLT2 (Homo sapiens, UniProt P31639); assay: SGLT2 inhibition; type: biochemical
T1 sequence (P31639 1-672): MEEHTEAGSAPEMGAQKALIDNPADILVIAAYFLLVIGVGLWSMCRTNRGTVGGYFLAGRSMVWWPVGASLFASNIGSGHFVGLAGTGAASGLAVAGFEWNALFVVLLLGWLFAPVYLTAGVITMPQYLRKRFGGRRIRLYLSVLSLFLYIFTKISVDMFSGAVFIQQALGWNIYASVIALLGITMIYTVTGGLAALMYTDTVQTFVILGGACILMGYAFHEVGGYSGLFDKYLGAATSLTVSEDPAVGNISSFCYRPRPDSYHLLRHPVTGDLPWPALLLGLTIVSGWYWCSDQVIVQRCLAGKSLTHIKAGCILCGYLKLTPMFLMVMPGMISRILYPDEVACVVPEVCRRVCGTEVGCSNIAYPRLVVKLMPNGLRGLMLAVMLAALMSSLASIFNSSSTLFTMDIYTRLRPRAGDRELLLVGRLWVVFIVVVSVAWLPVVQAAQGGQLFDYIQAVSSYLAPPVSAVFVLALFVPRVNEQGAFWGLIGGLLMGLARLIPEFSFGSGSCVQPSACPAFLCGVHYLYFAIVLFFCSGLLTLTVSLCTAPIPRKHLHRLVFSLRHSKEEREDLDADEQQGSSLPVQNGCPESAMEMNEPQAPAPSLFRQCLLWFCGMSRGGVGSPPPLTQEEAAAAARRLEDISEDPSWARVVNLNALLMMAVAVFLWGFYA

SGLT1 = molecular target: T2, SGLT1 (Homo sapiens, UniProt P13866); assay: SGLT1 inhibition; type: biochemical
T2 sequence (P13866 1-664): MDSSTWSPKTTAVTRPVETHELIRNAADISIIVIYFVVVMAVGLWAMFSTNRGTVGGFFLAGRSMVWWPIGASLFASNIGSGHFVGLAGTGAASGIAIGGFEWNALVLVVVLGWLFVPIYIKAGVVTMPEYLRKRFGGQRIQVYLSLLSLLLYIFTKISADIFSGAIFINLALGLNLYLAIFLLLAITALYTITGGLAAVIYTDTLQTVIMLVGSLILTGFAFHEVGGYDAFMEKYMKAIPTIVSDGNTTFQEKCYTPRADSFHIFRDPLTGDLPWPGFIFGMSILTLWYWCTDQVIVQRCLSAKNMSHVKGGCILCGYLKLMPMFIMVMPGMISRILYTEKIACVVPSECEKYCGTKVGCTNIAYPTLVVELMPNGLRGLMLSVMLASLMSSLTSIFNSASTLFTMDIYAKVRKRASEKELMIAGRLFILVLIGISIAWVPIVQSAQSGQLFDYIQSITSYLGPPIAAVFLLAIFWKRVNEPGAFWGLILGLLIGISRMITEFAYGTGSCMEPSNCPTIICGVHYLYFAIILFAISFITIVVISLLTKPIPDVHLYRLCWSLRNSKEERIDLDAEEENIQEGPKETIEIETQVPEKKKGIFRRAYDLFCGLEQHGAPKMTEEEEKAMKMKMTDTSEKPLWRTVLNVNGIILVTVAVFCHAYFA

[1] = tested on: other glucose transporters (GLUTs); assay: Selectivity against other glucose transporters; type: biochemical
hERG = hERG (Homo sapiens, UniProt Q12809); assay: hERG inhibitory activity; type: biochemical; conditions: at the maximal soluble concentration (16 μM)
[2] = Tissue distribution study in rats; type: in vivo
[3] = Excretion of [14C] LIK066-related radioactivity in rats; type: in vivo
P-glycoprotein (P-gp) = P-glycoprotein (P-gp) (Homo sapiens, UniProt P08183); assay: P-glycoprotein substrate assessment; type: in vitro ADME
Solubility = type: physicochemical
Permeability = type: in vitro ADME
human hepatocytes = assay: Clearance pathways in human hepatocytes; type: in vitro ADME
[4] = In vitro pharmacokinetic drug interaction studies; type: in vitro ADME
[5] = Dog pharmacokinetics, tablet vs solution, crossover; type: in vivo; conditions: single dose of 50 mg/dog, dogs
[6] = Oral toxicity studies in dogs; type: in vivo
[7] = Single and multiple dose studies in healthy volunteers and T2DM patients; type: in vivo, human
[8] = 12 week study in obese patients; type: in vivo, human
[9] = Dose/exposure-response analysis from completed clinical studies; type: in vivo, human
Experimental: The primary efficacy endpoint for dose/exposure-response analysis for LIK066, from previously completed clinical studies, was body weight loss, and other pharmacodynamic endpoints such as urinary and plasma glucose. The estimated ED50 and ED90 of LIK066 based on once a day dosing were approximately 5 mg and 50 mg, respectively, based on a body weight loss model. The estimated ED50 and ED90 based on other relevant pharmacodynamics endpoints such as urinary and plasma glucose were approximately 3-10 mg and 30-100 mg, respectively. […] Therefore this dose is tested first, with introduction of the 30 mg dose later to assure futility evaluation prior to enrollment of the entire cohort for the study. […] The diarrhea associated with LIK066 could be mitigated by dietary modification such as reduction in carbohydrate intake. Body weight loss is an important factor in therapeutic development for NASH as weight loss through either bariatric surgery or life style modification deters progression of the disease.

[10] = Clinical pharmacokinetics; conditions: human, in vivo; read-out: pharmacokinetic elimination half-life
[11] = rat, in vivo
[12] = Oral toxicity studies in rats
[13] = once a day dosing, body weight loss model
[14] = urinary and plasma glucose endpoints

P-glycoprotein (P-gp), sequence (P08183 whole entry): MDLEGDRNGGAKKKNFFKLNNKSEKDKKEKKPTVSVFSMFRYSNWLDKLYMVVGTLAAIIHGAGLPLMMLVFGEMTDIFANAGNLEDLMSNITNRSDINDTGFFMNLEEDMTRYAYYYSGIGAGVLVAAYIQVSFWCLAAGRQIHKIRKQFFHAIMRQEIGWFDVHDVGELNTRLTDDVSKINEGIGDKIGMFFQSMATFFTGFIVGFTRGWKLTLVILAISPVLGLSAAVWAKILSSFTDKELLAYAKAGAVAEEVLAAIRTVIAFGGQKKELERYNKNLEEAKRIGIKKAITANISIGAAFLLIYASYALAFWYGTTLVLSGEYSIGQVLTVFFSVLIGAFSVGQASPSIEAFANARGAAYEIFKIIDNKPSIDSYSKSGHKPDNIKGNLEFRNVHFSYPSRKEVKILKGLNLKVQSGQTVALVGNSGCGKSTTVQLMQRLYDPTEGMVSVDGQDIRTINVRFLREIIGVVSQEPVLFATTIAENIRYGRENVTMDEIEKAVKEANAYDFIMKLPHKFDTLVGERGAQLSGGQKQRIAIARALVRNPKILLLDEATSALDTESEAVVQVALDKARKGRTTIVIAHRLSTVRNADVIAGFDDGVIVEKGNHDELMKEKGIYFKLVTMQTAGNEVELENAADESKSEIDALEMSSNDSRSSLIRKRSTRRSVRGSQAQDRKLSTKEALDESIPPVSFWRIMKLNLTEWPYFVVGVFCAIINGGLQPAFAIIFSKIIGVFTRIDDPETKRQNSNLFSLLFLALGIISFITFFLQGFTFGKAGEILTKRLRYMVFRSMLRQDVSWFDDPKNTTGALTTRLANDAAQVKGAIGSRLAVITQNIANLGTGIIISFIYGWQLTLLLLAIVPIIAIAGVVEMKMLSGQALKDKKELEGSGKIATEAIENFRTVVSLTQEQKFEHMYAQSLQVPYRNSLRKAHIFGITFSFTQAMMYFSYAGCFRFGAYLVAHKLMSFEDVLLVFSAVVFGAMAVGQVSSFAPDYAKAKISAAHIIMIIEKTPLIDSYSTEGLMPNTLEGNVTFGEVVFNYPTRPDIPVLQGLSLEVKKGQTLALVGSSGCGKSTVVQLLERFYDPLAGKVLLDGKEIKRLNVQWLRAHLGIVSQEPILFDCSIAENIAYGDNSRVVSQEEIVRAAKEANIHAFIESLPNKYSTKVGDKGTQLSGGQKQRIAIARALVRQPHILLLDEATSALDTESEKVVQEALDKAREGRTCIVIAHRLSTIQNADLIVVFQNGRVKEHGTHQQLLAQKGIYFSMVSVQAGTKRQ
hERG, sequence (Q12809 whole entry): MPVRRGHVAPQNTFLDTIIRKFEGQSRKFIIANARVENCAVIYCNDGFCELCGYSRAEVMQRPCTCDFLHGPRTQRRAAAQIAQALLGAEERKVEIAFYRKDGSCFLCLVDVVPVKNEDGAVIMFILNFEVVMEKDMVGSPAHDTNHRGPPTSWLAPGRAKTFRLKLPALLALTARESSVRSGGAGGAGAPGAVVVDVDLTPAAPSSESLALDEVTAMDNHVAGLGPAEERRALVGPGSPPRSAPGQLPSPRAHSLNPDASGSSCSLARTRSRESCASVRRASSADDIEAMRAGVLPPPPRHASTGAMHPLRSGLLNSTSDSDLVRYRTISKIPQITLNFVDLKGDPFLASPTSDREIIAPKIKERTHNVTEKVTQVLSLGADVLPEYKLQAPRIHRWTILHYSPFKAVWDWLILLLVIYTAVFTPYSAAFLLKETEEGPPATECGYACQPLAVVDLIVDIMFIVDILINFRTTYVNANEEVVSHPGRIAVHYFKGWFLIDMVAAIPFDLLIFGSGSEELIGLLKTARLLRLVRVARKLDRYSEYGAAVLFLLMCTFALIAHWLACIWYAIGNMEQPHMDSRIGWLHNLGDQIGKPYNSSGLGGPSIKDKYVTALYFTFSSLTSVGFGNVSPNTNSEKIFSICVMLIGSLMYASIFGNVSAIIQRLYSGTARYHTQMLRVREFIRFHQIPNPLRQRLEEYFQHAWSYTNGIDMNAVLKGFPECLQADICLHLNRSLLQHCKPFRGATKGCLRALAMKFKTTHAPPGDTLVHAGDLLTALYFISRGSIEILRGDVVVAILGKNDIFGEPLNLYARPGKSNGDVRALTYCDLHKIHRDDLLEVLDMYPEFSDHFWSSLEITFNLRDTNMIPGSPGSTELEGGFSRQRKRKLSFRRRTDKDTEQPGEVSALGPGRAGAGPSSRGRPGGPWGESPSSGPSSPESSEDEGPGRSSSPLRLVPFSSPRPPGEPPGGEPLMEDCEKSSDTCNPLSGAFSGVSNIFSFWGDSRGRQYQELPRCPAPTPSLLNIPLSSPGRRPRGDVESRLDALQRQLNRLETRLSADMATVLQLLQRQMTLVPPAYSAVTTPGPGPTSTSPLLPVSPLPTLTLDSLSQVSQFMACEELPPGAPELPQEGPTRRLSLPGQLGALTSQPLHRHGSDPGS

With `CCc1ccc([C@@H]2O[C@H](CO)[C@@H](O)[C@H](O)[C@H]2O)cc1Cc1ccc2c(c1)OCCO2` [LIK066, (2S,3R,4R,5S,6R)-2-(3-((2,3-dihydrobenzo[b][1,4]dioxin-6-yl)methyl)-4-ethylphenyl)-6-(hydroxymethyl)tetrahydro-2H-pyran-3,4,5-triol] the “inhibition of SGLT2” value (SGLT2) was “potent inhibitor”, the “inhibition of SGLT1” value (SGLT1) was “potent inhibitor” and the “selectivity against other glucose transporters (GLUTs)” value [1] was “high selectivity”. For the same compound, the “inhibitory hERG activity” value (hERG) was “no significant inhibitory hERG activity”, the “distribution to the central nervous system and reproductive organs” value [2] was “relatively low distribution” and the “excretion of [14C] LIK066-related radioactivity” value [3] was “excreted in both urine and feces, mainly as metabolites”. The “P-glycoprotein (P-gp) substrate” value (P-glycoprotein (P-gp)) was “is a substrate”, the solubility (Solubility) was “good solubility” and the permeability (Permeability) was “good permeability”. The predominant clearance pathway (human hepatocytes) was “Direct glucuronidation (via the UDP-glucuronosyl transferase (UGT1A9))”, the “second clearance pathway (followed by)” value (human hepatocytes) was “oxidative metabolism (CYP3A4)” and the “potential to act as a perpetrator of pharmacokinetic drug interactions” value [4] was “low potential”. The “pharmacokinetics, tablet vs solution formulations” value [5] was “comparable”, the NOAEL ([6]; dog, in vivo, oral, read-out: no observed adverse effect level (NOAEL)) was 0.5 mg/kg/day and the body weight gain ([6]; dogs, at almost all doses) was “reduced body weight gain”. For the same compound, the doses not tolerated ([6]; dogs, prolonged periods (≥6 weeks), body weight loss, fecal changes and dehydration) was ≥ 10 mg/kg, the “principal target organs of toxicity” value ([6]; oral, dogs, up to 13-weeks) was “gastrointestinal tract, kidney, urinary tract, bone, liver and adrenal glands” and the safety and tolerability ([7]; healthy volunteers and patients with T2DM) was “safe and tolerated”. The pharmacokinetic profile ([7]; human, in vivo) was “favorable”, the placebo-adjusted weight loss ([7]; over 2 weeks, healthy subjects and patients with T2DM) was “up to 3%” and the “glucose AUC after an oral glucose tolerance test (OGTT)” value ([7]; patients with T2DM) was “significantly lowered”. The glucosuria ([7]; single and multiple doses, healthy volunteers and patients with T2DM) was “induced glucosuria”, the weight loss ([8]; 150 mg daily dose (qd, b.i.d or tid), obese patients, 12 week treatment) was ~6% and the “weight loss” value ([8]; 150 mg dose, previous phase 2 study) was “significant weight loss”. The “dose-limiting toxicity / primary AE” value ([8]; 150 mg qd, twelve weeks) was “diarrhea”, the safety and tolerability ([8]; 150 mg qd, twelve weeks, normoglycemic and dysglycemic subjects / obese patients) was “generally safe and well tolerated” and the “estimated ED50” value [9, 13] was “approximately 5 mg”. For the same compound, the “estimated ED90” value [9, 13] was ~50 mg, the “estimated ED50” value [9, 14] was 3 to 10 mg and the “estimated ED90” value [9, 14] was 30 to 100 mg. The half-life [10] was 10 to 16 h, the tolerated dose ([11]; 4 weeks) was “up to 100 mg/kg” and the tolerated dose ([11]; 26 weeks) was “up to 30 mg/kg”. The “principal target organs of toxicity” value ([12]; oral, rats, up to 26-weeks) was “gastrointestinal tract, kidney, urinary tract, bone, liver and adrenal glands”, the NOAEL ([12]; rat, in vivo, oral) was 5 mg/kg/day and the body weight gain ([12]; rats, at almost all doses) was “reduced body weight gain”.
